# Experimental data published in patent US7829560B2, “1,4-disubstituted naphthalenes as inhibitors of P38 MAP kinase” (Arqule, Inc., priority 2004, dated 2010).
# Where “and” joins values, the source holds several entries; their conditions need not be identical. Equal entries are not always repeated.
# Legend:
# p38α = biological target: T1, p38α (Homo sapiens, UniProt Q16539); test: p38 MAP Kinase assay: inhibition of ATF2 phosphorylation, ELISA; assay type: biochemical; details: for IC50: ATF2 phosphorylation, read-out: [ENZ] P38 ALPHA, IC50, ELISA; for inhibition at 10 µM: substrate ATF2, read-out: [ENZ] P38 ALPHA, PCT INH, ELISA (10 uM;ATF2) (Percent)
# T1 construct: p38 MAP Kinases are recombinant human full-length proteins with an amino-terminal GST fusion; GST (N); purchased Upstate Biotechnology Inc; host or cells: E. coli
# T1 sequence (Q16539 whole entry, the tested form may be a part): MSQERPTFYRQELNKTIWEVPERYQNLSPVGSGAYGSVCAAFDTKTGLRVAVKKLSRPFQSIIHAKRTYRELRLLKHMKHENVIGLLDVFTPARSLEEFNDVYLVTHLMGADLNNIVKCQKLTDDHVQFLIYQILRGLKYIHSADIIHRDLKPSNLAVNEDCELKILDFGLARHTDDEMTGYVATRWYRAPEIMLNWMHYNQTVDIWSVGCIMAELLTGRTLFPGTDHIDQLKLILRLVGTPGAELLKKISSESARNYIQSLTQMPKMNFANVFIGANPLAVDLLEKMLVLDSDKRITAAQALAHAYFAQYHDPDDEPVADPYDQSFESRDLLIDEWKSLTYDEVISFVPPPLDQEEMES
# How it was run: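 In vitro phosphorylation of ATF2 at Thr69 by recombinant human GST-p38 MAP kinase, read by anti-phospho-ATF2 ELISA at 450 nm. Enzyme and compound pre-incubated 15 min at RT, then 30 min reaction at 37 °C with 40 μM ATP and 1.25 μM ATF2; buffer with or without 1% HSA (Method II or I).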
# [1] = tested on: TNFα release from THP-1 cells; test: Inhibition of TNFα release from LPS-stimulated THP-1 cells, ELISA; assay type: cell-based; details: Homo sapiens, THP-1, THP-1 cells, read-out: [CELL] THP-1, IC50, TNF ALPHA, ELISA
# How it was run: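 TNFα released into supernatant after 18 h of 10 μg/ml LPS stimulation was quantified by ELISA and IC50 taken as 50% reduction by non-linear regression. THP-1 cells (10^6/ml; medium with 10% FBS, serum-free or 1% HSA) saw compound for 30 min at 37 °C beforehand; final DMSO ≤0.5%.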
Compound,IC50 (p38α),IC50 [1],inhibition at 10 µM (p38α)
O=C(Nc1ccc(OCCN2CCOCC2)c2ccccc12)c1cccc(Oc2ccccc2)c1 [Compound B61],2.3 µM,> 10 µM,–
C[C@@H]1CN(CCOc2ccc(NC(=O)c3ccc(CN4CCOCC4)cc3)c3ccccc23)C[C@H](C)O1 [Compound B5],> 10 µM,> 10 µM,–
O=C(Nc1ccc(OCCN2CCOCC2)c2ccccc12)c1cc(F)cc(N2Cc3ccccc3C2)c1 [Compound B212],> 10 µM,> 10 µM,–
Cc1cc(C)c(-c2cccc(C(=O)Nc3ccc(OCCN4CCOCC4)c4ccccc34)c2)cc1C [Compound B302],> 10 µM,> 10 µM,–
O=C(Nc1ccc(OCCN2CCOCC2)c2ccccc12)c1cc(F)cc(N2CCN(c3ccc(F)cc3)CC2)c1 [Compound B203],> 10 µM,> 10 µM,–
C[C@@H]1CN(CCOc2ccc(NC(=O)c3cccc(N4CCOCC4)c3)c3ccccc23)C[C@H](C)O1 [Compound B19],8.96 µM,> 10 µM,65%
O=C(Nc1ccc(OCCN2CCOCC2)c2ccccc12)c1cc(F)cc(N2CCc3ccccc3C2)c1 [Compound B200],> 10 µM,> 10 µM,–
O=C(Nc1ccc(OCCN2CCOCC2)c2ccccc12)c1cc(N2CCOCC2)ccc1Cl [Compound B41],> 10 µM,> 10 µM,–
O=C(Nc1ccc(NCCN2CCOCC2)c2ccccc12)c1cc(F)cc(N2CCCCC2)c1 [Compound B242],2.03 µM,10.6 µM,–
N#Cc1ccc(-c2cccc(C(=O)Nc3ccc(OCCN4CCOCC4)c4ccccc34)c2)cc1 [Compound B285],> 10 µM,9.79 µM,–
CCOc1ccc(Cl)cc1-c1cccc(C(=O)Nc2ccc(OCCN3CCOCC3)c3ccccc23)c1 [Compound B301],> 10 µM,> 10 µM,–
O=C(Nc1ccc(OCCN2CCOCC2)c2ccccc12)c1cc(Br)cc(I)c1 [Compound B27],> 100 µM,> 10 µM,–
"O=C(Nc1ccc(OCCCN2CCC(O)CC2)c2ccccc12)c1cc(F)cc(N2CCCCC2)c1 [Compound B162, 3-Fluoro-N-{4-[3-(4-hydroxy-piperidin-1-yl)-propoxy]-naphthalen-1-yl}-5-piperidin-1-yl-benzamide]",9.89 µM,> 10 µM,59.5%
Cc1ccc(-c2cccc(C(=O)Nc3ccc(OCCN4CCOCC4)c4ccccc34)c2)cc1C [Compound B276],> 10 µM,> 10 µM,–
O=C(Nc1ccc(OCCN2CCOCC2)c2ccccc12)c1cnc(N2CCOCC2)c2ccccc12 [Compound B28],> 100 µM,> 10 µM,–
O=C(Nc1ccc(OCCN2CCOCC2)c2ccccc12)c1cccc(-c2ccc(Cl)c(Cl)c2)c1 [Compound B283],> 10 µM,> 10 µM,–
CC(=O)c1cccc(-c2cccc(C(=O)Nc3ccc(OCCN4CCOCC4)c4ccccc34)c2)c1 [Compound B279],> 10 µM,> 10 µM,–
O=C(Nc1ccc(OCCN2CCOCC2)c2ccccc12)c1cc(Br)ccc1Cl [Compound B38],> 10 µM,> 10 µM,–
"Cc1ccc(C(=O)Nc2ccc(OCCN3CCOCC3)c3ccccc23)cc1N1CCOCC1 [Compound B40, 4-Methyl-3-morpholin-4-yl-N-[4-(2-morpholin-4-yl-ethoxy)-naphthalen-1-yl]-benzamide]",2.49 µM,> 10 µM,–
CC1CN(c2cc(F)cc(C(=O)Nc3ccc(OCCN4CCOCC4)c4ccccc34)c2)CC(C)O1 (stereo not drawn) [Compound B211],> 10 µM,> 10 µM,–
CN1CCN(c2cccc(C(=O)Nc3ccc(OCCN4CCOCC4)c4ccccc34)c2)CC1 [Compound B59],> 10 µM,> 10 µM,–
"CC1CCN(c2cc(F)cc(C(=O)Nc3ccc(OCc4nn[nH]n4)c4ccccc34)c2)CC1 [Compound B193, 3-Fluoro-5-(4-methylpiperidin-1-yl)-N-[4-(2H-tetrazol-5-ylmethoxy)-naphthalen-1-yl]-benzamide]",3.84 µM,> 10 µM,–
O=C(Nc1ccc(OCCN2CCOCC2)c2ccccc12)c1cccc(-c2ccc3c(c2)OCO3)c1 [Compound B273],> 10 µM,> 10 µM,–

# Compounds with a lower IC50 [1], results first:
IC50 (p38α),IC50 [1],inhibition at 10 µM (p38α),Compound
0.003 µM,0.0301 µM,–,COC(CNc1nccc(Oc2ccc(NC(=O)c3cc(F)cc(N4CCOCC4)c3)c3ccccc23)n1)OC [Compound B357]
0.744 µM,1.59 µM,86%,O=C(Nc1ccc(OCCN2CCOCC2)c2ccccc12)c1cccc(-c2ccc(F)cc2F)c1 [Compound B100]
0.9 µM,3.55 µM,78%,COc1cccc(-c2cccc(C(=O)Nc3ccc(OCCN4CCOCC4)c4ccccc34)c2)c1 [Compound B91]
1.02 µM,4.23 µM,–,"O=C(Nc1ccc(OCCN2CCOCC2)c2ccccc12)c1cc(F)cc(N2CCOCC2)c1 [Compound B206, 3-Fluoro-5-morpholin-4-yl-N-[4-(2-morpholin-4-ylethoxy)-1-naphthyl]benzamide]"
0.0168 µM,0.715 µM,–,O=C(Nc1ccc(Oc2ccnc(N3CCC(O)C3)n2)c2ccccc12)c1cc(F)cc(N2CCCCC2)c1 (stereo not drawn) [Compound B393]
> 10 µM,2.26 µM,42%,COc1cccc(OC)c1-c1cccc(C(=O)Nc2ccc(OCCN3CCOCC3)c3ccccc23)c1 [Compound B108]
1.33 µM,5.25 µM,78%,COc1ccccc1-c1cccc(C(=O)Nc2ccc(OCCN3CCOCC3)c3ccccc23)c1 [Compound B90]
3.67 µM,4.77 µM,–,O=C(Nc1ccc(OCCN2CCOCC2)c2ccccc12)c1cccc(-c2cccc(Cl)c2Cl)c1 [Compound B282]
1.42 µM,6.63 µM,–,"CC1CCN(c2cc(F)cc(C(=O)Nc3ccc(OCCN4CCNC(=O)C4)c4ccccc34)c2)CC1 [Compound B197, 3-Fluoro-5-(4-methyl-piperidin-1-yl)-N-{4-[2-(3-oxo-piperazin-1-yl)-ethoxy]-naphthalen-1-yl}-benzamide]"
1.77 µM,8.5 µM,–,"O=C1CCN(c2cc(F)cc(C(=O)Nc3ccc(OCCN4CCOCC4)c4ccccc34)c2)CC1 [Compound B198, 3-Fluoro-N-[4-(2-morpholin-4-yl-ethoxy)-naphthalen-1-yl]-5-(4-oxo-piperidin-1-yl)-benzamide]"
1.47 µM,3.09 µM,–,COc1ccc(F)cc1-c1cccc(C(=O)Nc2ccc(OCCN3CCOCC3)c3ccccc23)c1 [Compound B289]
5.6 µM,3.52 µM,–,O=C(Nc1ccc(OCCN2CCOCC2)c2ccccc12)c1cccc(-c2cc(F)ccc2F)c1 [Compound B280]
0.934 µM,5 µM,–,"Cc1ccc(C)c(-c2cccc(C(=O)Nc3ccc(OCCN4CCOCC4)c4ccccc34)c2)c1 [Compound B287, 2′,5′-dimethyl-biphenyl-3-carboxylic acid [4-(2-morpholin-4-yl-ethoxy)-naphthalen-1-yl]-amide]"
0.135 µM,0.765 µM,–,"CNc1nccc(Oc2ccc(NC(=O)c3cc(F)cc(N4CCOCC4)c3)c3ccccc23)n1 [Compound B251, 3-Fluoro-N-(4-{[2-(methylamino)pyrimidin-4-yl]oxy}-1-naphthyl)-5-morpholin-4-ylbenzamide]"
3.98 µM,3.57 µM,–,O=C(Nc1ccc(OCCN2CCOCC2)c2ccccc12)c1cccc(-c2ccc(F)c(Cl)c2)c1 [Compound B275]
0.002 µM and 0.0022 µM,0.0483 µM,–,CN(C)CC(C)(C)CNc1nccc(Oc2ccc(NC(=O)c3cc(F)cc(OC4CCCCC4)c3)c3ccccc23)n1 [Compound B313]
0.0687 µM,0.878 µM,–,CC1CCCN1c1nccc(Oc2ccc(NC(=O)c3cc(F)cc(N4CCOCC4)c3)c3ccccc23)n1 (stereo not drawn) [Compound B355]
1.01 µM,1.01 µM,–,"O=C(Nc1ccc(CCCN2CCOCC2)c2ccccc12)c1cc(F)cc(N2CCOCC2)c1 [Compound B240, 3-Fluoro-5-morpholin-4-yl-N-[4-(3-morpholin-4-yl-propyl)-naphthalen-1-yl]-benzamide]"
1.2 µM,0.879 µM,–,"O=C(Nc1ccc(CN2CCOCC2)c2ccccc12)c1cc(F)cc(N2CCOCC2)c1 [Compound B316, 3-Fluoro-5-morpholin-4-yl-N-(4-morpholin-4-ylmethyl-naphthalen-1-yl)-benzamide]"
0.0018 µM,0.0687 µM,–,"CN1CCC(Nc2nccc(Oc3ccc(NC(=O)c4cc(F)cc(N5CCCCC5)c4)c4ccccc34)n2)CC1 [Compound B409, 3-Fluoro-N-[4-({2-[(1-methylpiperidin-4-yl)amino]pyrimidin-4-yl}oxy)-1-naphthyl]-5-piperidin-1-ylbenzamide]"
0.0196 µM,0.117 µM,–,O=C(Nc1ccc(Oc2ccnc(NC3CCS(=O)(=O)C3)n2)c2ccccc12)c1cc(F)cc(N2CCCCC2)c1 (stereo not drawn) [Compound B406]
> 10 µM,0.843 µM,–,O=C(Nc1ccc(OCCN2CCOCC2)c2ccccc12)c1cc(N2CCOCC2)nc(N2CCCC2)n1 [Compound B47]
1.85 µM,3.6 µM,59%,"O=C(Nc1ccc(OCCN2CCOCC2)c2ccccc12)c1cccc(-c2cccc(C(F)(F)F)c2)c1 [Compound B88, 3′-Trifluoromethyl-biphenyl-3-carboxylic acid [4-(2-morpholin-4-yl-ethoxy)-naphthalen-1-yl]-amide]"
